Where two headings read alike, the source gives them in different places.
Tested on: SARS-CoV-2 strain USA-WA1/2020
Assay: microbe, parasite or virus in culture
Type: cell-based
Settings: Severe acute respiratory syndrome coronavirus 2, HeLa-ACE2, 24 h, HeLa-ACE2 cells, SARS-CoV-2 infection, 24 h, read-out: EC50, uM (Hela)

Row | Compound | EC50 [µM] | EC50 (class symbols) [µM] | other results
1 | O=C1NCC[C@H]1C[C@H](NC(=O)[C@@H]1CC2(CC2)CN1C(=O)[C@@H]1C[C@H]1C(F)(F)F)C(=O)COC(F)(F)F [Compound 718, (S)-N-((S)-3-oxo-1-((S)-2-oxopyrrolidin-3-yl)-4-(trifluoromethoxy)butan-2-yl)-5-((1R,2R)-2-(trifluoromethyl)cyclopropane-1-carbonyl)-5-azaspiro[2.4]heptane-6-carboxamide] | < 0.05 |  | 
2 | Cc1ccccc1NC(=O)C(=O)N[C@@H](CC1CC1)C(=O)N[C@@H](C[C@@H]1CCNC1=O)C(=O)COc1c(F)c(F)cc(F)c1F [Compound 116, N1-((S)-3-cyclopropyl-1-oxo-1-(((S)-3-oxo-1-((S)-2-oxopyrrolidin-3-yl)-4-(2,3,5,6-tetrafluorophenoxy)butan-2-yl)amino)propan-2-yl)-N2-(o-tolyl)oxalamide] |  | < 0.05 | 
3 | CC1(C)[C@@H]2[C@@H](C(=O)N[C@@H](C[C@@H]3CCNC3=O)C(=O)COC(F)(F)F)N(C(=O)C3(O)CCC(F)(F)CC3)C[C@@H]21 [Compound 630, (1R,2S,5S)-3-(4,4-difluoro-1-hydroxycyclohexane-1-carbonyl)-6,6-dimethyl-N-((S)-3-oxo-1-((S)-2-oxopyrrolidin-3-yl)-4-(trifluoromethoxy)butan-2-yl)-3-azabicyclo[3.1.0]hexane-2-carboxamide] | 0.05 to 0.2 |  | 
4 | O=C(NC12CC(F)(C1)C2)C(=O)N1C[C@@H]2CCC[C@@H]2[C@H]1C(=O)N[C@@H](C[C@@H]1CCNC1=O)C(=O)COC(F)(F)F [Compound 525, (1S,3aR,6aS)-2-(2-((3-fluorobicyclo[1.1.1]-pentan-1-yl)amino)-2-oxoacetyl)-N-((S)-3-oxo-1-((S)-2-oxopyrrolidin-3-yl)-4-(trifluoromethoxy)butan-2-yl)octahydrocyclo-penta[c]pyrrole-1-carboxamide] | < 0.05 |  | 
5 | O=C(Nc1ccccc1F)C(=O)N[C@@H](CC1CCCCC1)C(=O)N[C@@H](C[C@@H]1CCNC1=O)C(=O)COc1c(F)c(F)cc(F)c1F [Compound 61, N1-((S)-3-cyclohexyl-1-oxo-1-(((S)-3-oxo-1-((S)-2-oxopyrrolidin-3-yl)-4-(2,3,5,6-tetrafluorophenoxy)butan-2-yl)amino)propan-2-yl)-N2-(2-fluorophenyl)oxalamide] |  | < 0.05 | 
6 | CC1(C)[C@@H]2[C@@H](C(=O)N[C@@H](C[C@@H]3CCNC3=O)C(=O)COC(F)(F)F)N(C(=O)[C@@H]3COCCO3)C[C@@H]21 [Compound 307, (1R,2S,5S)-3-((S)-1,4-dioxane-2-carbonyl)-6,6-dimethyl-N-((S)-3-oxo-1-((S)-2-oxopyrrolidin-3-yl)-4-(trifluoromethoxy)butan-2-yl)-3-azabicyclo[3.1.0]hexane-2-carboxamide] |  | 0.2 to 0.5 | 
7 | O=C(N[C@@H](C[C@@H]1CCNC1=O)C(=O)COc1c(F)c(F)cc(F)c1F)C1CCN(C(=O)C2CCCC2)CC1 [Compound 27, l-(cyclopentane-carbonyl)-N-((S)-3-oxo-1-((S)-2-oxopyrrolidin-3-yl)-4-(2,3,5,6-tetrafluorophenoxy)butan-2-yl)piperidine-4-carboxamide] |  |  | EC50 (cells given as a bound): > 1 µM
8 | O=C(N[C@@H](CC1CC1)C(=O)N[C@@H](C[C@@H]1CCNC1=O)C(=O)COC(F)(F)F)c1cc(-c2ccccc2)n[nH]1 [Compound 192, N-((S)-3-cyclopropyl-1-oxo-1-(((S)-3-oxo-1-((S)-2-oxopyrrolidin-3-yl)-4-(trifluoromethoxy)butan-2-yl)amino)propan-2-yl)-3-phenyl-1H-pyrazole-5-carboxamide] |  | 0.05 to 0.2 | 
9 | CC(C)(C)CC(O)C(=O)N1C[C@@H]2CCC[C@@H]2[C@H]1C(=O)N[C@@H](C[C@@H]1CCNC1=O)C(=O)COC(F)(F)F (stereo partly drawn) [Compound 348, (1S,3aR,6aS)-2-(2-hydroxy-4,4-dimethylpentanoyl)-N-((S)-3-oxo-1-((S)-2-oxopyrrolidin-3-yl)-4-(trifluoromethoxy)butan-2-yl)octahydrocyclo-penta[c]pyrrole-1-carboxamide] |  | < 0.05 | 
10 | CC1(NC(=O)C(=O)N2C[C@@H]3CCC[C@@H]3[C@H]2C(=O)N[C@@H](C[C@@H]2CCNC2=O)C(=O)COC(F)(F)F)CC1 [Compound 270, (1S,3aR,6aS)-2-(2-((l-methylcyclopropyl)-amino)-2-oxoacetyl)-N-((S)-3-oxo-1-((S)-2-oxopyrrolidin-3-yl)-4-(trifluoromethoxy)butan-2-yl)octahydrocyclo-penta[c]pyrrole-1-carboxamide] |  | 0.05 to 0.2 | 
11 | O=C(Nc1ccc(Cl)cc1F)C(=O)N1CC2(CC2)C[C@H]1C(=O)N[C@@H](C[C@@H]1CCNC1=O)C(=O)COC(F)(F)F [Compound 591, (S)-5-(2-((4-chloro-2-fluorophenyl)amino)-2-oxoacetyl)-N-((S)-3-oxo-1-((S)-2-oxopyrrolidin-3-yl)-4-(trifluoromethoxy)butan-2-yl)-5-azaspiro[2.4]-heptane-6-carboxamide] | < 0.05 |  | 
12 | CC(C)C[C@H](NC(=O)C(=O)Nc1ccccc1C(C)(C)C)C(=O)N[C@@H](C[C@@H]1CCNC1=O)C(=O)COc1c(F)c(F)cc(F)c1F [Compound 33, N1-(2-(tert-butyl)phenyl)-N2-((S)-4-methyl-1-oxo-1-(((S)-3-oxo-1-((S)-2-oxopyrrolidin-3-yl)-4-(2,3,5,6-tetrafluorophenoxy)butan-2-yl)amino)pentan-2-yl)oxalamide] |  | < 0.05 | 
13 | O=C1NCC[C@H]1C[C@H](NC(=O)[C@@H]1CC2(CC2)CN1C(=O)C12CC(C(F)F)(CO1)C2)C(=O)COC(F)(F)F [Compound 320, (S)-5-(4-(difluoromethyl)-2-oxabicyclo[2.1.1]-hexane-1-carbonyl)-N-((S)-3-oxo-1-((S)-2-oxopyrrolidin-3-yl)-4-(trifluoromethoxy)butan-2-yl)-5-azaspiro[2.4]-heptane-6-carboxamide] |  | 0.2 to 0.5 | 
14 | CC(C)C[C@@H](O)C(=O)N1CCCCC[C@H]1C(=O)N[C@@H](C[C@@H]1CCNC1=O)C(=O)COC(F)(F)F [Compound 639, (S)-1-((R)-2-hydroxy-4-methylpentanoyl)-N-((S)-3-oxo-1-((S)-2-oxopyrrolidin-3-yl)-4-(trifluoromethoxy)butan-2-yl)azepane-2-carboxamide] | < 0.05 |  | 
15 | O=C1NCC[C@H]1C[C@H](NC(=O)[C@@H]1CC2(CC2)CN1C(=O)c1ccc(Cl)cc1F)C(=O)COC(F)(F)F [Compound 702, (S)-5-(4-chloro-2-fluorobenzoyl)-N-((S)-3-oxo-1-((S)-2-oxopyrrolidin-3-yl)-4-(trifluoromethoxy)butan-2-yl)-5-azaspiro[2.4]heptane-6-carboxamide] | 0.05 to 0.2 |  | 
16 | O=C(C(=O)N1CC2(CC2)C[C@H]1C(=O)N[C@@H](C[C@@H]1CCNC1=O)C(=O)COC(F)(F)F)c1ccccc1 [Compound 674, (S)-N-((S)-3-oxo-1-((S)-2-oxopyrrolidin-3-yl)-4-(trifluoromethoxy)butan-2-yl)-5-(2-oxo-2-phenylacetyl)-5-azaspiro[2.4]heptane-6-carboxamide] | 0.05 to 0.2 |  | 
17 | CC(C)(NC(=O)C(=O)N1CC2(CC2)C[C@H]1C(=O)N[C@@H](C[C@@H]1CCNC1=O)C(=O)COC(F)(F)F)C(F)(F)F [Compound 590, (S)-N-((S)-3-oxo-1-((S)-2-oxopyrrolidin-3-yl)-4-(trifluoromethoxy)butan-2-yl)-5-(2-oxo-2-((1,1,1-trifluoro-2-methylpropan-2-yl)amino)acetyl)-5-azaspiro[2.4]heptane-6-carboxamide] | 0.05 to 0.2 |  | 
18 | COCC1(NC(=O)C(=O)N[C@@H](CC2CC2)C(=O)N[C@@H](C[C@@H]2CCNC2=O)C(=O)COC(F)(F)F)COC1 [Compound 238, N1-((S)-3-cyclopropyl-1-oxo-1-(((S)-3-oxo-1 ((S)-2-oxopyrrolidin-3-yl)-4-(trifluoromethoxy)butan-2-yl)amino)propan-2-yl)-N2-(3-(methoxymethyl)oxetan-3-yl)oxalamide] |  | 0.2 to 0.5 | 
19 | Cc1ccccc1NC(=O)C(=O)N(C)[C@@H](CC(C)C)C(=O)N[C@@H](C[C@@H]1CCNC1=O)C(=O)COc1c(F)c(F)cc(F)c1F [Compound 105, N1-methyl-N1-((S)-4-methyl-1-oxo-1-(((S)-3-oxo-1-((S)-2-oxopyrrolidin-3-yl)-4-(2,3,5,6-tetrafluorophenoxy)butan-2-yl)amino)pentan-2-yl)-N2-(o-tolyl)oxalamide] |  |  | EC50 (cells given as a bound): > 1 µM
20 | Cc1ccc(C2(NC(=O)C(=O)N[C@@H](CC(C)C)C(=O)N[C@@H](C[C@@H]3CCNC3=O)C(=O)COC(F)(F)F)CC2)cc1 [Compound 186, N1-((S)-4-methyl-1-oxo-1-(((S)-3-oxo-1-((S)-2-oxopyrrolidin-3-yl)-4-(trifluoromethoxy)butan-2-yl)amino)pentan-2-yl)-N2-(l-(p-tyolyl)-cyclopropyl)oxalamide] |  | < 0.05 | 
21 | O=C1NCC[C@H]1C[C@H](NC(=O)[C@@H]1CC2(CC2)CN1C(=O)c1ccccc1)C(=O)COC(F)(F)F [Compound 694, (S)-5-benzoyl-N-((S)-3-oxo-1-((S)-2-oxopyrrolidin-3-yl)-4-(trifluoromethoxy)butan-2-yl)-5-azaspiro[2.4]heptane-6-carboxamide] | 0.05 to 0.2 |  | 
22 | CS(=O)(=O)NC/C=C/C[C@@H](O)C(=O)N1CC2(CC2)C[C@H]1C(=O)N[C@@H](C[C@@H]1CCNC1=O)C(=O)COC(F)(F)F [Compound 675, (S)-5-((R,E)-2-hydroxy-6-(methylsulfonamido)hex-4-enoyl)-N-((S)-3-oxo-1-((S)-2-oxopyrrolidin-3-yl)-4-(trifluoromethoxy)butan-2-yl)-5-azaspiro[2.4]heptane-6-carboxamide] | 0.2 to 0.5 |  | 
23 | CC(C)C[C@H](NC(=O)C(=O)NC(C)(C)C(F)(F)F)C(=O)N[C@@H](C[C@@H]1CCNC1=O)C(=O)COC(F)(F)F [Compound 211, N1-((S)-4-methyl-1-oxo-1-(((S)-3-oxo-1-((S)-2-oxopyrrolidin-3-yl)-4-(trifluoromethoxy)butan-2-yl)amino)pentan-2-yl)-N2-(1,1,1-trifluoro-2-methylpropan-2-yl)oxalamide] |  | < 0.05 | 
